Assay results reported in patent US20190106460A1, “BINDING INHIBITORS OF THE BETA. TRANSDUCIN REPEAT-CONTAINING PROTEIN” (priority 2011, published 2019).
Like-named read-outs stand apart in the source and are kept apart here. Starred links: 1 amine or outer side, 2 acyl side, 3 side chain; linkers in the order of their positions; H or OH if unused. Non-standard residues stand in square brackets, D forms with d. Residues, ends and D or L forms follow the SMILES beside them. Phe(4-NO2) = N[C@@H](Cc1ccc([N+](=O)[O-])cc1)C(=O)O; Phe(3-F) = N[C@@H](Cc1cccc(F)c1)C(=O)O; Phe(4-F) = N[C@@H](Cc1ccc(F)cc1)C(=O)O; 1Nal = N[C@@H](Cc1cccc2ccccc12)C(=O)O; Suc = O=C(CCC(=O)[*:2])[*:1]

Columns and labels:
βTrCP/Skp1 = βTrCP/Skp1 (Homo sapiens, UniProt Q9Y297); test: Surface plasmon resonance (SPR), Biacore T200; format: binding; details: apparent KD averaged over both surfaces
Method: Surface Plasmon Resonance (SPR)
Experiments were carried out using the Biacore T200 SPR detection system. This system exploits the phenomenon of surface plasmon resonance (SPR) to monitor interactions between molecules. The system involves the attachment of one interacting partner to a surface (an appropriate sensor chip) while the other interacting partner is passed over it in solution. The binding of molecules to the surface generates an SPR response (measured in response units (RU)) that is proportional to the mass and amount of the biomolecule (in this case βTrCP/Skp1) bound to the chip. The relative responses obtained are dependent on the concentration of the molecule binding. At RUmaximum, the attached protein's binding sites are saturated. Binding events can be followed in real time and a range of interaction characteristics can be determined including kinetics, specificity of interactions and the concentration of specific molecules in a sample.
As βTrCP was His tagged, an NTA sensor chip was used. This sensor chip has a dextran surface matrix with immobilized nitrilotriacetic acid (NTA) which provides a means of capturing polyHis-tagged proteins through Nickel chelation. It was hoped that addition of Ni^+ would orient the protein in a specific (and hopefully active) manner as it is covalently immobilised via amine coupling. Addition of EDC:NHS (N-ethyl-N′-(3-[…])-carbodiimide:N-hydroxysuccinimide) converts carboxyl groups on the dextran sensor chip surface to succinamide esters which readily form covalent bonds with primary amines. Each chip contains four flow cells (each a separate surface) which means that compounds/peptides can be passed over different forms of βTrCP and a reference surface simultaneously. If binding to βTrCP is occurring, responses should be the same (accounting for differences in density of surface etc) on each surface.
Two different βTrCP protein complexes were immobilised on to an NTA biacore sensor chip. One included the GSTSkp1 fusion (HisβTrCP/GSTSkp1) while the other was immobilised after GST Removal by Thrombin (HisβTrCP/Skp1). To ensure that the GST moiety is completely removed from Skp1, βTrCP/GSTSkp1 was incubated with thrombin ((10units/mg protein) for at least 16 hours at room temperature in 10mMHEPES 150mMNaCl pH7.4+2 mM CaCl2. Thrombin and GST were removed from βTrCP/Skp1 by buffer exchange through a 50 KDa MWCO vivaspin concentrator.
Protein Immobilisation Procedure for NTA Chip
Ni+ (500 μM NiCl) loaded on to surface at a flow rate of 5 μl/min for 60s. EDC/NHS (activates dextran carboxylates) loaded at a flow rate of 5 μl/min for 240s. Protein ([protein]=100 nM to 1 μM) loaded at a flow rate of 10 μl/min for 180s. Strip solution (350 μM EDTA/1M NaCl) added at flow rate of 10 μl/min for 30s (to chelate excess Ni+ and remove non-covalently bound protein e.g. protein oligomers). Quench solution (ethanolamine) at flow rate of 5 μl/min for 240s (to deactivate surface molecules on the chip that have not crosslinked protein). The immobilisation buffer used was 10 mM HEPES pH 7.4, 150 mM NaCl,
GST Capture Procedure (for Immobilisation Via GSTSkp1)
EDC:NHS was injected at 5 μl/min for 4 min to activate surface for amine coupling (this converts carboxyl groups on the surface of the chip to succinamide esters that react with primary amines)
Anti-GST (60 μg/ml). was loaded at 10 μl/min for 4 min resulting in an increase in response units of 6730 (Biacore manual states it should result in ˜7000)
Ethanolamine was injected at 5 μl/min for 5 min to deactivate remaining unreacted esters at surface (quenching).
Injection of a low concentration of purified GST (from kit) was injected for 3 mins at 5 μl/min before running a regeneration cycle with glycine pH2.0 that disrupts the antibody-GST interaction. […]

βTrCP [1] = biological target: T1, βTrCP (Homo sapiens, UniProt Q9Y297); test: Biotin pull down assay with biotinylated IκB peptide; format: binding; details: for Biotin Pulldown Assay 10 μM: 10 μM compound; for Biotin Pulldown Assay 100 μM: 100 μM compound
T1 sequence (Q9Y297 1-605): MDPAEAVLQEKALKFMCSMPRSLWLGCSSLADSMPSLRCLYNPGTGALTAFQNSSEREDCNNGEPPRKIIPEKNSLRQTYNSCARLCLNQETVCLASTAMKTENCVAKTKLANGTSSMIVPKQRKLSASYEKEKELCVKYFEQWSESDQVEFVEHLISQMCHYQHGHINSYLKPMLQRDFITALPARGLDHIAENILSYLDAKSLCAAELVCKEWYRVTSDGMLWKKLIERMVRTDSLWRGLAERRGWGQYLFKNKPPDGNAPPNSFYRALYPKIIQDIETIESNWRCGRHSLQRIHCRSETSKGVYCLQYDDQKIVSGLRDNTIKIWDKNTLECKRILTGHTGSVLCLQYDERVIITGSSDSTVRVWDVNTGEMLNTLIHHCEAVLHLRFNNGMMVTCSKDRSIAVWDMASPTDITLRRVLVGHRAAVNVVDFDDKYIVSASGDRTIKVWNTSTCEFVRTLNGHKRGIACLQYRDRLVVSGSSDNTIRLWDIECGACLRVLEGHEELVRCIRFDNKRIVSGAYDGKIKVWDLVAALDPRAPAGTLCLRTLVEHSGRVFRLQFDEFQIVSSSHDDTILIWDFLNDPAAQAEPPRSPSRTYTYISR

βTrCP [2] = biological target: βTrCP (Homo sapiens, UniProt Q9Y297); test: Fluorescence polarisation (FP) binding assay with fluorescein-tagged IκB peptide
Target sequence in this assay (P63208 whole entry partner, one chain of several): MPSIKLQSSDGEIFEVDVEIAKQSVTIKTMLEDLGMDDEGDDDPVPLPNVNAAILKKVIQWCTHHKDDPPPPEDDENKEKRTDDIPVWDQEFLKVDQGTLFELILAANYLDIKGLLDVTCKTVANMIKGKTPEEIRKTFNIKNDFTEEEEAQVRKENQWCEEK

Skp2 = Skp2 (Homo sapiens, UniProt Q13309); test: Selectivity assay vs other E3s: Skp2; format: biochemical; details: for inhibition at 100 µM: value in brackets, read-out: % Inhibition Skp2 @ (100 μM); for inhibition at 10 µM: read-out: % Inhibition Skp2 @ 10 μM
Method in brief: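 Skp2 ubiquitination was measured in master mixes of 50 mM Herpes buffer, pH 7.5, with 75 mM NaCl and 1 mM DTT, lacking Mg or ATP. Test compounds were preincubated for 30 minutes at room temperature, Mg/ATP was added for a further 60 minutes, and reactions were boiled in SDS loading buffer, resolved on 10% SDS-PAGE, blotted to nitrocellulose and probed with HRP-Streptavidin.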

β-TrCP1/Skp1 = β-TrCP1/Skp1 (Homo sapiens, UniProt Q9Y297); test: βTrCP ubiquitination assay (Ub assay); format: biochemical; details: for Ub Assay 10 μM: 10 μM compound; for Ub Assay 100 μM: 100 μM compound
Method: βTrCP Ubiquitination Assay and Selectivity Assays
0.5 μM Peptide substrate (biotin)
Master mixes were prepared in a 50 mM Herpes buffer at pH 7.5, in 75 mM NaCl and 1 mM DTT without Mg or ATP and peptides were added to a final concentration of 100 μM. Reactions were incubated at room temperature for 30 minutes and then Mg/ATP was added to the mix. Reactions were further incubated for an additional 60 minutes and then stopped by adding SDS gel loading buffer and boiled for 5 minutes. Reactions were run on SDS-PAGE (10%) and transferred to nitrocellulose membranes and probed with HRP-Streptavidin.
Candidate compounds were tested in duplicate at both 10 and 100 μM against the E3 ligase cascades βTrCP(IκBα) and βTrCP(β-catenin). The E3 assays were carried out according to the component concentrations detailed in Table 9. In each case the E2 was HA,6His-UbcH3-(hu,FL), the E1 was 6His-UBE1-(hu,FL) and the ubiquitin (Sigma U6253) was biotinylated at a 5:1 ratio. Substrate phosphorylation was performed in the absence of compound; consequently any observed signal modulation should not reflect inhibition of the up-stream kinase reaction. All other steps (E1, E2 and substrate ubiquitination) were carried out in the presence of compound. The stopped reaction mix (10 μl) was added to an ECL plate loaded with anti c-Myc ( 1/500 Dilution, Millipore 05-724) and blocked with 5% BSA. Binding was allowed to proceed for 1 hour at RT before a wash step (3 40 μl PBST washes). Detection was achieved by binding SA-Ru TAG at 1 μg/ml (1 hour @ RT, 3 40 μl PBST washes) before reading on an MSD Sector Imager 6000.
Assays were performed as described above

FBW7/Skp1 = FBW7/Skp1 (Homo sapiens, UniProt Q969H0); test: Selectivity assay vs other E3s: Fbw7; format: biochemical; details: for inhibition at 100 µM: value in brackets, read-out: % Inhibition Fbw7 @ (100 μM); for inhibition at 10 µM: read-out: % Inhibition Fbw7 @ 10 μM
Method in brief: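 FBW7/Skp1 E3 ubiquitination of cyclin E substrate in 50 mM HEPES pH 7.5, 75 mM NaCl, 1 mM DTT; preincubated 30 min at room temperature before Mg/ATP, then 60 min more. Products resolved by 10% SDS-PAGE and immunoblotted with anti-cyclin E.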

[3] = Table 11, with spread, read-out: FP IC50/μM
[4] = Tables 1, 3, 7, 8, 10 nM fluorescein-tagged IκB peptide, read-out: FP Assay IC50/μM

Sequence of FBW7/Skp1 (Q969H0 whole entry, species assumed): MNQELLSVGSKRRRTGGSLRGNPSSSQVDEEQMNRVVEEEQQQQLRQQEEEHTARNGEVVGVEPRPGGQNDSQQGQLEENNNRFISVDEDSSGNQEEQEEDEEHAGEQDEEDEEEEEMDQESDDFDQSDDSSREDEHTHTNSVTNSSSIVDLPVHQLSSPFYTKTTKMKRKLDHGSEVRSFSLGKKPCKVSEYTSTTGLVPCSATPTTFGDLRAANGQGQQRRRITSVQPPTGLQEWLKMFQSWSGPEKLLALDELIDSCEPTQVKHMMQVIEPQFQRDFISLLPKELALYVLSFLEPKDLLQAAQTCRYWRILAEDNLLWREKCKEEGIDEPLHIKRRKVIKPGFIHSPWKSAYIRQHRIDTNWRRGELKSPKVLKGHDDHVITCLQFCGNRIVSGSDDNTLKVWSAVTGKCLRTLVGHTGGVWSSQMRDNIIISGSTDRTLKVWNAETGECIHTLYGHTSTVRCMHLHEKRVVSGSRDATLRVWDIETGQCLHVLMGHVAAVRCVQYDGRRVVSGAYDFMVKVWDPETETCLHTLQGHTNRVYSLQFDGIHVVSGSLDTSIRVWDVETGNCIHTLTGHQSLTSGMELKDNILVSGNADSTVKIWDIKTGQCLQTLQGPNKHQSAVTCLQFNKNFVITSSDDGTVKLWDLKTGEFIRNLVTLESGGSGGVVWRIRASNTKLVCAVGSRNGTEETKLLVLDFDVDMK
Sequence of FBW7/Skp1 (P63208 whole entry partner, species assumed): as the sequence (P63208 whole entry partner, one chain of several) above
Sequence of FBW7/Skp1 (Q13616 whole entry partner, species assumed): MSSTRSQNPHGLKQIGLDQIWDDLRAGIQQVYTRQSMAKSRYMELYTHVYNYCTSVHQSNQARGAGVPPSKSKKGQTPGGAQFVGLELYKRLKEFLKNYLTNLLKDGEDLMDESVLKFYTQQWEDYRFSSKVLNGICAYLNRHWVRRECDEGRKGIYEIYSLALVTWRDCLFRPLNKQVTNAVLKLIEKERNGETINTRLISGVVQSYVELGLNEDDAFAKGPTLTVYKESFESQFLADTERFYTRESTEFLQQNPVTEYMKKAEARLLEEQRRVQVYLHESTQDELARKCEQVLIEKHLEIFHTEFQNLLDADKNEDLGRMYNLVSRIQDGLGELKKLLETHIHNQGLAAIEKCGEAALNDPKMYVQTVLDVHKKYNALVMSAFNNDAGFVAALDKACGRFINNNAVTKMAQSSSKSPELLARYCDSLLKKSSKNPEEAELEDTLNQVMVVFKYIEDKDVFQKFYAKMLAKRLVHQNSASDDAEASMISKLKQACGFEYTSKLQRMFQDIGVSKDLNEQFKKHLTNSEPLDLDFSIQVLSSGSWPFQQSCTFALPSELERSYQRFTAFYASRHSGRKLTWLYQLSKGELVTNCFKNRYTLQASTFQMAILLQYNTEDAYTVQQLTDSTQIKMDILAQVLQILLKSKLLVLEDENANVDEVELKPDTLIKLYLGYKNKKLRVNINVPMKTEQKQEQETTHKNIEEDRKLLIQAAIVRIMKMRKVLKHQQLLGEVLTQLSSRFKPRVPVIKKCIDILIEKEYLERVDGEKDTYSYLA
Sequence of FBW7/Skp1 (P62877 whole entry partner, species assumed): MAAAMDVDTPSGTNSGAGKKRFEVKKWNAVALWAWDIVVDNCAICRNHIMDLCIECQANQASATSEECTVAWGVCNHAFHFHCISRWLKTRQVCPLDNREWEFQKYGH
Sequence of β-TrCP1/Skp1 (P63208 2-163 partner limits assumed, one chain of several): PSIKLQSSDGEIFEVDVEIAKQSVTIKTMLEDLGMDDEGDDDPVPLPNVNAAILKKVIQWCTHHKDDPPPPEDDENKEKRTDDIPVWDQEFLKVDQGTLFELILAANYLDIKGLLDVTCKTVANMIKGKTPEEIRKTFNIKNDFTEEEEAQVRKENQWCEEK
Sequence of βTrCP/Skp1 (P63208 whole entry partner, one chain of several): as the sequence (P63208 whole entry partner, one chain of several) above
Sequence of Skp2 (Q13309 whole entry, species assumed): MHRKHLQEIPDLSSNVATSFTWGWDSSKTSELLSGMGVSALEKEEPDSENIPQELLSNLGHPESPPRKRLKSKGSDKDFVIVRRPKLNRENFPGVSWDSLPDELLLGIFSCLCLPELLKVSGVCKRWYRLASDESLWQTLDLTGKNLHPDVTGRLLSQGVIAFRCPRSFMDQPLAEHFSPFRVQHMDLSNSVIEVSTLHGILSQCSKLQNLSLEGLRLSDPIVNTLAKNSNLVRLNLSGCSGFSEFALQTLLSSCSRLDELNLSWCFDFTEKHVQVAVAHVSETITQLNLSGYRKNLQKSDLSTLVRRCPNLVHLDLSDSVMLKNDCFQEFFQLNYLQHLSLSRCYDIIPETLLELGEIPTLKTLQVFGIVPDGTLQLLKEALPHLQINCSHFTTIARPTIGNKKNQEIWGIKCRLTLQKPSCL
Sequence of Skp2 (P63208 whole entry partner, species assumed): as the sequence (P63208 whole entry partner, one chain of several) above
Sequence of Skp2 (Q13616 whole entry partner, species assumed): as the sequence (Q13616 whole entry partner, species assumed) above
Sequence of Skp2 (P62877 whole entry partner, species assumed): as the sequence (P62877 whole entry partner, species assumed) above

SMILES | Kd (βTrCP/Skp1) [µM] | Biotin Pulldown Assay 10 μM (βTrCP [1]) | Biotin Pulldown Assay 100 μM (βTrCP [1]) | IC50 (βTrCP [2]; [3]) [µM] | IC50 (βTrCP [2]; [4]) [µM] | inhibition at 100 µM (Skp2) [%] | inhibition at 10 µM (Skp2) [%] | Ub Assay 10 μM (β-TrCP1/Skp1) | Ub Assay 100 μM (β-TrCP1/Skp1) | inhibition at 100 µM (FBW7/Skp1) [%] | inhibition at 10 µM (FBW7/Skp1) [%]
NC(=O)[C@H](CCC(=O)O)NC(=O)[C@H](Cc1cccc2ccccc12)NC(=O)[C@H](Cc1cccc(F)c1)NC(=O)CNC(=O)[C@H](CCC(=O)O)NC(=O)CCC(=O)O [UBP010, Suc-EGF(3F)1NalE-NH2] (Suc-EG[Phe(3-F)][1Nal]E-NH2) | 0.32 ± 0.24 | inhibits/ | inhibits | 0.157 ± 0.037 | 0.157 | 12 | 0 | inhibits/ | inhibits | 0 | 3
NC(=O)[C@H](CCC(=O)O)NC(=O)[C@H](Cc1cccc2ccccc12)NC(=O)[C@H](Cc1ccc(O)cc1)NC(=O)CNC(=O)[C@H](CCC(=O)O)NC(=O)CCC(=O)O [UBP009, Suc-EGY1NalE-NH2] (Suc-EGY[1Nal]E-NH2) | 1.49 ± 0.625 | no effect/ | inhibits | 1.15 ± 0.222 | 1.15 | 6 | 0 | reduces/ | inhibits | 5 | 1
NC(=O)[C@H](CCC(=O)O)NC(=O)[C@H](Cc1ccc([N+](=O)[O-])cc1)NC(=O)[C@H](Cc1cccc(F)c1)NC(=O)CNC(=O)[C@H](CCC(=O)O)NC(=O)CCC(=O)O [UBP004, Suc-EGF(3F)F(4NO2)E-NH2] (Suc-EG[Phe(3-F)][Phe(4-NO2)]E-NH2) | 4.53 ± 0.681 | reduces/ | inhibits | 0.522 ± 0.049 |  | 3 | 0 | inhibits/ | inhibits | 2 | 0
NC(=O)[C@H](CCC(=O)O)NC(=O)[C@H](Cc1ccc([N+](=O)[O-])cc1)NC(=O)[C@H](Cc1ccc(O)cc1)NC(=O)CNC(=O)[C@H](CCC(=O)O)NC(=O)CCC(=O)O [UBP013, Suc-EGYF(4NO2)E-NH2] (Suc-EGY[Phe(4-NO2)]E-NH2) | 17.7 ± 5.2 | no effect/ | inhibits | 2.07 ± 0.346 |  | 31 | 11 | no effect/ | inhibits | 0 | 0
NC(=O)[C@H](CCC(=O)O)NC(=O)[C@H](Cc1ccc([N+](=O)[O-])cc1)NC(=O)[C@H](Cc1ccc(F)cc1)NC(=O)CNC(=O)[C@H](CCC(=O)O)NC(=O)CCC(=O)O [UBP005, Suc-EGF(4F)F(4NO2)E-NH2] (Suc-EG[Phe(4-F)][Phe(4-NO2)]E-NH2) | 0.507 ± 0.267 | no effect/ | inhibits | 1.21 ± 0.093 |  | 0 | 0 | reduces/ | inhibits | 0 | 0
NC(=O)CC[C@H](NC(=O)CCC(=O)O)C(=O)NCC(=O)N[C@@H](Cc1cccc(F)c1)C(=O)N[C@@H](Cc1ccc([N+](=O)[O-])cc1)C(=O)N[C@@H](CCC(=O)O)C(N)=O [UBP012, Suc-QGF(3F)F(4NO2)E-NH2] | 5.49 ± 2.27 | no effect/ | reduces | 2.56 ± 0.374 |  | 0 | 0 | no effect/ | inhibits | 0 | 0
NC(=O)[C@H](CCC(=O)O)NC(=O)[C@H](Cc1c[nH]cn1)NC(=O)[C@H](Cc1cccc(F)c1)NC(=O)CNC(=O)[C@H](CCC(=O)O)NC(=O)CCC(=O)O [UBP015, Suc-EGF(3F)HE-NH2] (Suc-EG[Phe(3-F)]HE-NH2) | 0.4 ± 0.021 | reduces/ | inhibits | 0.521 ± 0.059 | 0.521 | 18 | 3 | reduces/ | inhibits | 83 | 12
